Data on one compound can be found in patent US20090123389A1, “Methods for modulating Th17 cell development in the treatment and prevention of cellulite” (priority 2007, published 2009).

Test [1] deals with CD4+ CD25− T cells. Description: CD4+ T cell proliferation, CD25 upregulation, cytokine production, Th1/Th2/iTreg differentiation. The format is cell-based, mouse. To be noted: for concentration causing general inhibition of T and B cell activation, proliferation and effector function: CD4+ T cells, CD8+ T cells, B220+ B cells. Here is the method:
The dose-response of HF on CD4+ T cell proliferation, activation (i.e. CD25 upregulation) and differentiation to Th1, Th2 and Th17 lineages were evaluated. Purified murine naïve CD4+ CD25− T cells were activated using anti-CD3 (0.3 μg/ml) and anti-CD28 (0.5 μg/ml) antibodies and varying amounts of HF was added to each T cell culture condition (1.25 nM-40 nM). CD4+ T cell proliferation was monitored by CFSE dilution on day 3-post activation and CD25 expression was evaluated by FACS staining 2 days after activation. For T cell differentiation experiments, naïve T cells were activated as above in the presence of Th1 (IL-12 (20 ng/ml) plus anti-IL-4 (1.5 μg/ml)), Th2 (IL-4 (50 ng/ml) plus anti-IFNγ (0.5 mg/ml)) or Th17 (TGFβ (3 ng/ml) plus IL-6 (30 ng/ml)) polarizing conditions plus titrating amounts of HF (1.25 nM-40 nM) or MAZ1310 (40 nM). The percentage of Th17 cells, (IL-17^+ IFNγ^−) was evaluated on day 3 following activation, whereas the abundance of Th1 cells (IFNγ^+ IL-4) and Th2 cells (IL-4^+ IFNγ^−) was determined 5 days following activation. All cytokine expression was determined by intracellular staining following PMA+Ionomycin+Brefeldin A re-stimulation and all data was normalized to control (MAZ1310)-treated cells. […] Biol., vol. 80:1-8 (2006).
Cytokines, antibodies and T cell culture: Purified CD4^+ CD25^− T cells were activated in vitro as previously described (I. M. Djuretic et al., Nat Immunol 8, 145 (2007)) using 0.3 μg/ml hamster anti-mouse CD3 (clone 145-2C11) (ATCC—Manassas, Va.) and 0.5 μg/ml hamster anti-mouse CD28 (BD Pharmingen, San Jose, Calif.). Activated cell cultures were differentiated using the following combinations of cytokines and antibodies: iTreg=recombinant human TGFβ1 (3 ng/ml; R&D systems, Minneapolis, Minn.), Th17=TGFβ1 (3 ng/ml) plus recombinant mouse IL-6 (30 ng/ml, R&D systems). Th1 and Th2 differentiation was performed as previously described. (I. M. Djuretic et al., Nat Immunol 8, 145 (2007)). Human IL-2 supernatant (National Cancer Institute) was used in culture at 0.01 U/ml and was added at 48 hours-post activation when T cells were split into tissue culture wells lacking CD3 and CD28 antibodies, with the exception of Th17 cultures that were maintained in the absence of IL-2. All reagents were added at the time of T cell activation and again at 48-hours post activation unless indicated otherwise. For some experiments, purified CD4^+ CD25^− T cells, CD8^+ T cells or B cells were labeled with 1 μM CFSE (Invitrogen) prior to activation in accordance with manufacturers instructions.
Detection of cytokine production: Cytokines secreted into media supernatant were measured using the mouse Th1/Th2 cytometric bead array (CBA, BD Pharmingen) in accordance with manufacturers instructions. Briefly, CD4^+ CD25^− T cells were activated in anti-CD3/anti-CD28-coated tissue culture wells and supernatants were collected at the indicated times. For detection of intracellular cytokines in murine cells, cultured T or B cells were stimulated with 10 nM PMA (Sigma) and […] (Sigma) for 4-5 hours in the presence of […] (Sigma). Stimulated cells were harvested, washed with PBS and fixed with PBS plus 4% paraformaldehyde at room temperature for 20 minutes. […]

Test [2] deals with CD4+ CD25− T cells. Description: Quantitative real-time PCR of AAR-associated genes in activated T cells. The format is cell-based, mouse. To be noted: 10 nM HF, within 4 hours of T cell activation. The procedure: FIG. 12C is a graph depicting the results of quantitative real-time PCR performed on cDNA generated from resting naïve T cells (TN) or T cells activated for 4 hours in the presence of 10 nM MAZ1310 or 10 nM HF. Asns, Gpt2 or eIF4Ebp1 mRNA expression was normalized to Hprt levels and data are presented as mean values±SD in duplicate samples.
Quantitative real-time PCR: T cells were activated as described above, collected at the indicated times and pellets were flash-frozen in liquid nitrogen. Total RNA was obtained by RNeasy (Quiagen, Valencia, Calif.) column purification per manufacturers instructions. RORγt expression was determined after reverse transcription using the message sensor kit (Ambion, Austin, Tex.) per manufacturers instructions and taqman primers and probe as described elsewhere (I. Ivanov, et al., Cell 126, 1121, 2006). Sybrgreen quantitative real-time PCR was performed on T cell RNA samples following reverse transcription via SuperScript II first-strand cDNA synthesis kit (Invitrogen, Carlsbad, Calif.). All PCR data was collected on an iCycler thermal cycler (Biorad, Hercules, Calif.). Primer sequences used for detecting stress response genes are listed below.

Test [3] deals with human peripheral blood T cells. The conditions noted are these: cited from earlier work.

`O=C(CC1NCCCC1O)Cn1cnc2cc(Br)c(Cl)cc2c1=O` (racemic) [HF, 7-bromo-6-chloro-3-[3-(3-hydroxy-2-piperidinyl)-2-oxopropyl]-4(3H)-quinazolinone]: the “concentration causing general inhibition of T and B cell activation, proliferation and effector function” value in test [1] was more than 20 nM; in test [1] (listed as halofuginone) it was 20 to 40 nM. In addition, the “T cell proliferation, CD25 upregulation or production of IL-2, TNF or IFNγ” value in test [1] (low concentrations of HF (1-10 nM)) is given as “did not affect”. In addition, the “Th1, Th2 or iTreg differentiation (IFNγ, IL-4 or Foxp3 expression)” value in test [1] (low-dose HF) is given as “failed to modulate”. The “AAR-associated genes (Asns, Gpt2, eIF4Ebp1) mRNA by qPCR” value in test [2] is recorded as “induced”. The “NFkB activation and T-cell secretion of cytokines” value in test [3] (80 nM HF, crude preparation of primary T-cells) is given as “broadly suppress”. Further, the IC50 in test [3] (Lieba studies, read-out: 50% inhibition of cytokine secretion, NF-kB activation, p38 phosphorylation) is 20 to 40 nM. Also, the “levels of cytokine secretion, NF-kB activation and p38 phosphorylation” value in test [3] (anti-CD3 activated T cells) is “generally reduced levels”.
